Test results as given in PubChem BioAssay (NCI).
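Five compound concentrations were applied to cells in 96-well plates for 48 hours; endpoints were derived by simple linear interpolation of the resulting dose-response curve. GI50 marks 50% less growth. TGI: total growth inhibition.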 Peptide text beside a SMILES is read from it. * marks the point of attachment. OSu = O=C1CCC(=O)N1O*; OBn = c1ccc(CO*)cc1; Bn = c1ccc(C*)cc1

What was measured:
Assay in all cases: inhibition of tumour cell growth, NCI panel, 48 h
[1] = system: SNB-75 CNS
[2] = system: MDA-MB-435
[3] = system: A498 renal
[4] = system: HS 578T breast
[5] = system: MOLT-4 leukemia
[6] = system: TK-10 renal
[7] = system: HCT-116 colon
[8] = system: PC-3 prostate
[9] = system: SK-OV-3 ovarian
[10] = system: SF-539 CNS

Structure (SMILES)	TGI [1] [µM]	TGI [2] [µM]	TGI [3] [µM]	TGI [4] [µM]	TGI [5] [µM]	TGI [6] [µM]	TGI [7] [µM]	TGI [8] [µM]	TGI [9] [µM]	TGI [10] [µM]	GI50 [3] [µM]	GI50 [6] [µM]	GI50 [7] [µM]	GI50 [8] [µM]	GI50 [1] [µM]
Cc1ccc(C2(c3ccc(C)c(O)c3C)CCN(C)CC2)c(C)c1O	> 100	> 100	> 100	> 100	> 100	74.4	> 100	> 100	–	–	–	–	–	–	–
O=C1NC(=S)NC(=O)C1=Cc1ccc2ccccc2n1	> 100	–	> 100	–	> 100	> 100	> 100	–	> 100	> 100	–	–	–	–	–
COc1ccc(N2C(=O)C3c4[nH]c5ccccc5c4C4CCC(C(C)(C)C)CC4C3C2=O)cc1OC (configuration not stated)	32.5	–	41.4	–	43.9	–	31.4	–	45	34.7	–	–	–	–	–
c1ccc2nn(C3CCCCO3)nc2c1 (configuration not stated)	> 100	> 100	–	> 100	> 100	> 100	> 100	> 100	> 100	> 100	–	–	–	–	–
COC1=C(OC)C(=O)C(Cc2c(Cl)nc3n2CCS3)=C(C)C1=O	–	29.2	35.6	66.1	3.28	32	25.3	64.2	25.1	28.1	–	–	–	–	–
Cc1nn(C(=O)c2ccc(Cl)cc2)c2c1C(c1ccco1)SC(N)=N2 (configuration not stated)	> 10	> 10	–	> 10	> 10	> 10	> 10	> 10	> 10	> 10	–	–	–	–	–
O=c1c(S(=O)(=O)Oc2ccccc2)coc2cc(F)ccc12	> 100	> 100	–	> 100	> 100	> 100	> 100	> 100	> 100	> 100	–	–	–	–	–
Cc1csc2n(C)c(=O)c3ccccc3[n+]12	–	> 100	–	> 100	> 100	> 100	> 100	> 100	> 100	> 100	–	–	–	–	–
O=C(NNCc1ccccc1O)c1ccccc1O	> 100	> 100	> 100	–	> 100	> 100	> 100	> 100	68.6	> 100	–	–	–	–	–
O=C(NC(CO)CO)c1ccc2cc(C(=O)N3CC(CCl)c4ccc([N+](=O)[O-])cc43)[nH]c2c1 (configuration not stated)	> 100	> 100	–	> 100	> 100	> 100	> 100	> 100	> 100	> 100	–	–	–	–	–
CCOC(=O)CCC(NC(=O)c1ccc(NCc2ccc3nc(-c4ccccc4)c(Cl)nc3c2)c2ccccc12)C(=O)OCC (configuration not stated)	> 100	> 100	> 100	–	27.9	> 100	> 100	> 100	> 100	> 100	–	–	–	–	–
O=C1C(CN2CCCC2)CCCC1CN1CCCC1 (configuration not stated)	35.6	7.43	38.7	72.6	–	5.5	3.28	32.3	31.9	16.1	–	–	–	–	–
CCOC(=O)O/N=C1/C(c2c(O)[nH]c3ccccc23)=Nc2ccccc21	11.4	17.3	16.8	51.8	> 100	24	13.6	–	7.07	–	–	–	–	–	–
CC(CC(C)(C)[N+](C)(C)C)[N+](C)(C)C (configuration not stated)	> 100	–	–	–	> 100	> 100	> 100	> 100	> 100	> 100	–	–	–	–	–
Cc1ccc(CC(=O)Nc2ccc(NC(=O)CNC(=O)/C=C/c3ccc(-c4ccccc4)cc3)cc2C(=O)c2ccccc2)cc1	–	16.1	8.73	21.1	15.3	5.95	2.65	4.07	27.4	8.85	–	–	–	–	–
CC1CN=C(N(C)C(=O)Nc2ccc(Cl)c(Cl)c2)S1 (configuration not stated)	> 100	–	> 100	> 100	> 100	92.5	> 100	> 100	> 100	52.6	–	–	–	–	–
CCOC(=O)C12C(=O)CCN1CCc1ccccc1C2C (configuration not stated)	–	> 100	> 100	> 100	> 100	> 100	> 100	> 100	> 100	> 100	–	–	–	–	–
CC(C)CC(NC(=O)C(N)CCC(=O)OCc1ccccc1)C(=O)NC(COCc1ccccc1)C(=O)NC(Cc1ccccc1)C(=O)ON1C(=O)CCC1=O (configuration not stated) (H-E(OBn)LS(Bn)F-OSu; configuration not given here)	> 100	> 100	–	76.1	62.8	73.8	33.1	63.2	87.8	–	–	–	–	–	–
CCOC(=O)/C=C1/Nc2cc(F)c(F)cc2NC1=O	> 100	> 100	–	> 100	> 100	> 100	> 100	> 100	> 100	> 100	–	–	–	–	–
CC(C)(Oc1ccc(C(=O)c2ccc(Cl)cc2)cc1Cl)C(=O)N1CCN(c2ccccc2)CC1	–	–	> 100	–	> 100	> 100	> 100	–	> 100	> 100	–	–	–	–	–
COc1cc(C(CC(OC)OC)=C(C#N)C#N)cc(OC)c1OC	82.2	–	40	–	33.9	> 100	44.1	–	> 100	37.1	–	–	–	–	–
S=C1CSc2c(cnc3ccccc23)N1	> 100	> 100	–	> 100	> 100	> 100	> 100	> 100	> 100	–	–	–	–	–	–
COc1c(Cl)c(Cl)c(OC)c2c1C(=O)C=CC2=O	80	–	> 100	–	46.7	41.9	31.6	–	> 100	41.2	–	–	–	–	–
Cc1cnc2[nH]c(-c3cccc(Cl)c3)cc(=O)c2c1	36.2	–	> 100	20.5	–	> 100	–	> 100	> 100	0.0658	–	–	–	–	–
CC(=O)N1C(OCc2ccccc2)CCN1c1ccccc1 (configuration not stated)	> 10	> 10	–	> 10	> 10	> 10	> 10	> 10	> 10	> 10	–	–	–	–	–

Structure (SMILES)	TGI [1] [µM]	TGI [2] [µM]	TGI [3] [µM]	TGI [4] [µM]	TGI [5] [µM]	TGI [6] [µM]	TGI [7] [µM]	TGI [8] [µM]	TGI [9] [µM]	TGI [10] [µM]	GI50 [3] [µM]	GI50 [6] [µM]	GI50 [7] [µM]	GI50 [8] [µM]	GI50 [1] [µM]
Cc1oc2c(C)c3oc(=O)cc(C)c3cc2c1CN	> 100	–	> 100	–	> 100	86.9	> 100	–	79.2	> 100	–	–	–	–	–
COc1ccc(/C=C/C(c2cc(OC)c(OC)c(OC)c2)n2cncn2)cc1O (configuration not stated)	–	–	9.09	–	–	> 100	> 100	> 100	–	–	3.13	21.2	0.041	0.036	–
CCOC(=O)CN(Cc1ccccc1)Cc1c(C(=O)c2ccccc2)c2ccccc2n1C(=O)c1ccccc1	> 100	–	> 100	–	> 100	> 100	> 100	–	> 100	> 100	–	–	–	–	–
COC(=O)C(N)CCCC(N)C(=O)NC(C)C(=O)NC(CCC(=O)NCCCNc1ccc([N+](=O)[O-])c2[nH]c3ccccc3c(=O)c12)C(N)=O (configuration not stated)	21.6	17.6	30.7	–	–	23.2	12.4	19.8	26.7	–	–	–	–	–	–
Cn1c(=O)c2[nH]c(-n3nc(-c4ccccc4)cc3N)nc2n(C)c1=O	–	> 100	27.9	–	> 100	> 100	> 100	> 100	20.4	27.1	–	–	–	–	–
Clc1cccc(N=C/C=C/Nc2cccc(Cl)c2)c1	–	28.9	49.7	> 100	73.2	> 100	28.2	28.4	–	34.2	–	–	–	–	–
c1ccc(-c2nc3ccccc3n3nnnc23)cc1	–	> 100	> 100	–	> 100	> 100	> 100	> 100	> 100	> 100	–	–	–	–	–
CCCN(CCC)c1c([N+](=O)[O-])cc(C(=O)N(C)C)cc1[N+](=O)[O-]	31.5	–	–	–	> 100	> 100	> 100	–	> 100	> 100	–	–	–	–	–
OCCNc1nc2c(N3CCCC3)nc(N3CCNCC3)nc2nc1NCc1ccccc1	26.8	25.1	–	51.4	33.3	28.7	21.9	30.7	31.1	32	–	–	–	–	–
C/C(=C/c1c(C)[nH]c(=O)[nH]c1=O)C(=O)O	> 1380	–	> 1380	–	> 1380	–	> 1380	–	> 1370	> 1380	–	–	–	–	–
C=CCc1cccc2cc(C(=O)Nc3nc(C45CC6CC(CC(C6)C4)C5)cs3)c(=O)oc12	> 100	> 100	70.6	47.9	> 100	89.8	–	> 100	–	> 100	–	–	–	–	–
COc1cc(C2C3=C(N=C4SC(C(C)=O)=C(C)N42)c2ccccc2CC3)cc(OC)c1OC (configuration not stated)	> 100	> 100	> 100	> 100	–	–	> 100	> 100	> 100	> 100	–	–	–	–	–
O=C1C=C(NCCc2cc(Br)c(O)c(Br)c2)C(=O)c2[nH]cnc21	69.1	29.3	–	–	–	> 100	43.9	> 100	> 100	> 100	–	–	–	–	–
Cc1ccc(NC(=O)CC(=O)N2N=C(c3ccccc3)C(N=Nc3ccc(S(=O)(=O)CCOS(=O)(=O)O)cc3)C2=O)cc1 (configuration not stated)	> 100	> 100	> 100	> 100	> 100	> 100	> 100	> 100	–	> 100	–	–	–	–	–
CC1(CO)C(=O)OC12CCCCC2 (configuration not stated)	> 100	–	> 100	–	> 100	> 100	> 100	–	> 100	> 100	–	–	–	–	–
COc1cc(C)cc(OC)c1/C=C/C(=O)O	–	> 100	> 100	> 100	> 100	> 100	> 100	> 100	–	–	–	–	–	–	–
Cc1ccc(Nc2ccc(Nc3ccc(C)cc3S(=O)(=O)O)c3c2C(=O)c2ccccc2C3=O)c(S(=O)(=O)O)c1	> 100	–	> 100	–	> 100	> 100	> 100	–	> 100	> 100	–	–	–	–	–
CCCCNCC(O)c1cc(-c2ccc(C(F)(F)F)cc2)nc(-c2ccc(C(F)(F)F)cc2)c1 (configuration not stated)	3.6	–	2.86	–	–	3.83	–	3.05	–	–	1.38	2.16	–	1.52	1.91
CCc1cc2c(oc3c4ccccc4ccc23)c(=O)[nH]1	> 10	> 10	–	> 10	> 10	> 10	> 10	> 10	> 10	> 10	–	–	–	–	–
N#CI1OC(C(F)(F)F)(C(F)(F)F)c2ccccc21	32.4	38.4	> 100	–	–	39.1	30.4	30.1	> 100	36.9	–	–	–	–	–
NC(CNc1ccc(O)cc1)C(=O)O (configuration not stated)	> 100	–	> 100	–	> 100	> 100	> 100	–	> 100	–	–	–	–	–	–
O=C(c1ccccc1)n1[nH]c(=O)n(-c2ccc(Cl)cc2)c1=O	> 100	> 100	–	> 100	> 100	> 100	> 100	> 100	> 100	–	–	–	–	–	–
O=[N+]([O-])c1ccc(Cl)cc1N/N=C/c1cccs1	> 100	> 100	–	> 100	> 100	> 100	> 100	> 100	> 100	> 100	–	–	–	–	–
C/C(NC(=O)c1ccccc1)=C(/C(=O)c1ccccc1)[C@@H]1OC(C)(C)O[C@@H]1[C@H]1COC(C)(C)O1	–	39.9	> 100	> 100	37.2	> 100	52.5	> 100	–	> 100	–	–	–	–	–
